Experimental data as given in a melting point compilation (Tetko et al.; mined from patent text by program, amines drawn as free bases though some values may be those of a salt).

SMILES	melting point
CN1CCN(c2ccc(-c3cnc4c(c3)N(S(=O)(=O)c3ccccc3Cl)CCN4)cn2)CC1	164 to 165 °C
COc1ccc2ccc(NC(=O)c3c[nH]c4c3C(=O)CCC4)nc2n1	173 to 181 °C
Clc1nc(-n2cccn2)ncc1Cc1ccccc1	149 to 151 °C
COC(=O)c1ccccc1S(=O)(=O)NC(=O)n1nc(Oc2ccccc2)n(C)c1=O	161 °C
CCCCCS(=O)(=O)NC(=O)/C=C/c1cc(OC(C)C)nn1Cc1ccc(C(F)(F)F)cc1Cl	139 to 140 °C
O=C(c1ccccc1)N1CCC(COc2ccccc2)CC1	95 to 96 °C
Fc1cccc(Cl)c1-c1c(Cl)cc(-c2ccccn2)nc1Cl	45 °C
CCOC(=O)c1cc(=O)cc(-c2ccc(S(C)(=O)=O)cc2)o1	176 to 179 °C
Clc1ccc(Nc2ccnc(-c3cccc(Cl)n3)n2)cc1	174 to 176 °C
CS(=O)(=O)Nc1ccc(C(=O)NC(=O)N2CCC(Cc3ccc(F)cc3)CC2)cc1	221 to 222 °C
O=[N+]([O-])c1cncn1CCO	101 to 102 °C
CC(/C=C/CN1CCc2cc3c(cc21)C(C)(C)CCC3(C)C)=C\C(=O)O	170 to 171 °C
O=C(CCc1ccccc1)Nc1cc(C(=O)O)ccn1	266 to 267 °C
CC(C)(C)[Si](C)(C)O[C@H]1OC[C@@H](n2cnc3cc(Cl)c(Cl)cc32)[C@H](O)[C@@H]1O	128 to 130 °C
CC(c1oc2ccccc2c(=O)c1-c1cccc(F)c1)n1nc(C#CCO)c2c(N)ncnc21 (centres undefined)	171 to 173 °C
COC(=O)C=CCOc1ccc(F)c(C(N)=O)c1F	122 to 123 °C
COC1(c2ccc(C)cc2)CCC(=O)CC1	76 to 76.5 °C
O=C1CCC(N2C(=O)c3cccc(CNC(=O)Nc4ccccn4)c3C2=O)C(=O)N1 (centres undefined)	> 260 °C
Cc1ccc(C(=O)c2c(C)cc(C)cc2OCC(O)CNC(C)C)cc1 (centres undefined)	89 to 91 °C
CC(C(=O)O)c1ccc(OCCNC(=O)C2Cc3ccccc3N2S(=O)(=O)c2ccc(-c3cccc(C(F)(F)F)c3)cc2)cc1 (centres undefined)	92 to 96 °C
C=CC(C)c1cc(C)c2c(c1)C(=O)CC2 (centres undefined)	88 to 92 °C
CCc1ccc2oc(=O)[nH]c2c1	146 to 147 °C
COc1ccc(C=O)cc1OC(=O)c1ccccc1	70 to 72 °C
O=C(O)c1ccc(-c2ccc(NS(=O)(=O)C(F)(F)F)cc2)[nH]c1=O	> 260 °C
CCc1ccc(-n2c(-c3ccc(SC)cc3)nc(SC)c(C#N)c2=O)cc1	223 to 225 °C

SMILES	melting point
NC(=O)N(O)Cc1ccco1	128 to 131 °C
C=CCc1ccc2c(c1)CCC2O (centres undefined)	54 °C
C=CCn1c(C)c(C)c2cnnc(OCc3ccc(F)cc3)c21	125 to 126 °C
CC(C)(C)OC(=O)NNC(=O)N1CCC(Br)C1=O (centres undefined)	122 to 123 °C
CC(=O)c1c(C)nc2c(OCc3c(Cl)ccc(S(=O)(=O)N4CCC[C@H]4C(=O)NCCCNC(=O)c4ccc(C(N)=NO)cc4)c3Cl)cccn12	164 to 166 °C
CC(C)(C)c1cc(C(=O)Nc2cccc(C(=O)O)c2)cc(C(C)(C)C)c1O	279 to 280 °C
Nc1ccc(S(=O)(=O)c2cc(N)nc(Br)c2)cc1	204 to 205 °C
COc1ccc(-c2cc(=Nc3c(C)cc(C)cc3C)n(C)c3nnnn23)cc1OC	198 to 200 °C
Cn1cc(Br)cc1C=O	123 to 124 °C
CC(C)(C)OC(=O)NC(CI)c1ccc(F)cc1 (centres undefined)	138 to 139 °C
Cn1c([N+](=O)[O-])cnc1CS(=O)c1ccccn1 (centres undefined)	160 °C
O=C(O)c1ccccc1-n1nc(-c2ccccc2O)nc1-c1ccccc1O	132 to 138 °C
Oc1ccc(F)c2c1C[C@@H](N(C1CCC1)C1CCC1)CO2	170 to 172 °C
CCOC(=O)c1c(-c2ccc(F)cc2)cc(-c2ccccc2Cc2ccccc2)nc1C(C)C	94 to 97 °C
COc1ccc(C(=O)Nc2c(Cl)cncc2Cl)c2c3cc([N+](=O)[O-])ccc3n(C)c12	> 250 °C
Cc1ccccc1C(=O)P1(=O)Oc2ccccc2-c2ccccc21 (centres undefined)	102 to 104 °C
O=C1N(Cc2cccnc2)c2ccccc2C12COc1cc(F)c(F)cc12 (centres undefined)	175 to 177 °C
Cc1ccccc1-c1nnc(N2CCC(O)CC2)nc1-c1ccccc1C	155 to 156 °C
OC1CC(CN2CCC(c3ccccc3)CC2)CCc2ccccc21 (centres undefined)	48 to 50 °C
CC(C)(C)c1nn(-c2cc(O)c(Cl)cc2Cl)c(=O)s1	130 to 132 °C
C[C@@H]1CN(CCNC(=S)N(C)C)CC[C@@H]1Nc1nc2ccccc2n1Cc1ccc(F)cc1 (relative stereo)	127 °C
C(=C1\CN2CCC1CC2)/N1c2ccccc2Sc2ccccc21	149 to 153 °C
CN1CC(CN)Oc2c(-c3cccc(Cl)c3)cccc21 (centres undefined)	134 °C
COC(=O)c1ccc(C=O)cc1SCc1ccccc1	91 to 93 °C
COC(=O)C1(NC(=O)Cc2c(C)ccc(-c3ccc(Cl)cc3)c2C)CCC(F)(F)CC1	179 to 183 °C

SMILES	melting point
Cc1ccc(S(=O)(=O)Oc2cc(Cl)c(C=O)c(Cl)c2)cc1	77 to 80 °C
O=C(Nc1ccccc1O)C(F)(F)C(O)(Cn1cncn1)c1ccc(F)cc1F (centres undefined)	121 to 126 °C
CCC(C)OC(=O)C(C(=O)O)=C1SCS1 (centres undefined)	80 to 82 °C
COc1c(C(O)CNC(C)(C)Cc2ccccc2)ccc(O)c1O (centres undefined)	149 to 150 °C
CN(C)CCc1cn(S(=O)(=O)c2ccccc2)c2ccc(O)cc12	185 to 188 °C
CONC(=O)CON1C(=O)c2ccccc2C1=O	179 °C
O=C(COc1cc(-c2ccccc2)on1)NCCO[N+](=O)[O-]	113 to 114 °C
O=C(O)CC1(c2ccc(Cl)cc2)Oc2ccccc2O1	138 °C
O=C(O)CCCCCCCCCN1C(=O)c2ccccc2C1=O	58 to 60 °C
COC(=O)c1ccc(C#Cc2ccc(OCC(O)CO)c(C34CC5CC(CC(C5)C3)C4)c2)cc1 (centres undefined)	202 to 203 °C
CC(C)(C)OC(=O)NCC(=O)OCCCCNc1cccc2c1C(=O)c1ccccc1C2=O	70 °C
CCONC(=O)c1cc(Br)c(Br)s1	117 to 119 °C
CC(C)(C)OC(=O)N1CCN(c2ccc(-c3[nH]nc4c3C(=O)c3c(NC(=O)NN5CCOCC5)cccc3-4)cc2)CC1	242 °C
COC(=O)c1ccc2c(nc(C)n2Cc2ccccc2)c1C1=NC(C)(C(C)C)C(=O)N1 (centres undefined)	194 to 196 °C
CN(CCCS(=O)CCCC(F)(F)C(F)(F)F)CCOc1ccc(C2=C(c3ccccc3)CCCc3cc(O)ccc32)cc1 (centres undefined)	63 to 65 °C
CCCNC(=O)C1CCCN1C(=O)OCc1ccccc1 (centres undefined)	74 to 75 °C
CON(C)Cc1nc2c(N)nc3cc(OCc4ccccc4)ccc3c2n1CC1CCOCC1	159 to 161 °C
Cn1cc(-c2ccc(Cl)c(OC3SCC(O)C(O)C3O)c2)cn1 (centres undefined)	158 °C
C[C@H]1COC(=O)N1c1nc(-c2ccc(C#N)cc2)cs1	205 to 207 °C
CC(C)c1cc(Cl)cc(C(C)C)c1NC(=O)NS(=O)(=O)c1cccc(C(C)(C)O)c1	160 to 162 °C
CCc1cccc(CC)c1-n1cncc1C(N)=O	171 to 172 °C
O=c1[nH][nH]c(=O)c2c(O)c3c(Cl)c(Cl)c(Cl)cc3nc12	123 to 124 °C
CCOC(=O)c1cc2ccc(Oc3ccc([N+](=O)[O-])cc3)cc2oc1=O	163 °C
O=S(=O)(NCCO)c1cccc(-c2cccc(-c3nc(-c4ccc(C(F)(F)F)cc4)cc(C(F)(F)F)n3)c2)c1	153 °C
O=C1NC(=O)C(c2c[nH]c3cc(F)ccc23)=C1C1=COc2ccccc2O1	203 °C

SMILES	melting point
COCCc1sc(C(O)(c2nc(C)c(CCOC)s2)C(F)(F)F)nc1C	68 to 69 °C
FC(F)(F)c1ccc2nc(N3CCN(c4ncccc4C(F)(F)F)CC3)n(Cc3ccccc3)c2c1	154 to 157 °C
Cc1ccc(C)c(-c2cn(C)cc(-c3ccccc3)c2=O)c1	188 to 190 °C
CNC(=O)c1ccc(C=CC(=O)Nc2cccc(-c3ccc(C)c(COc4cccc5ccc(C)nc45)c3C)c2)cc1	234 to 238 °C
Cc1cn(C2CC(O)C(COC(=O)Oc3ccc([N+](=O)[O-])cc3)O2)c(=O)[nH]c1=O (centres undefined)	145 to 146 °C
COC(=O)c1scc(C)c1-n1cccc1	76 °C
C1=C(c2nc3ccccc3o2)CCN(Cc2ccccc2)C1	129 to 130 °C
Nc1c([N+](=O)[O-])sc2ccc(Br)cc12	282 to 284 °C
Cc1ccc2oc(=O)c(C(=O)Oc3cc(F)ccc3F)cc2c1	155 to 159 °C
Cc1cccc(O[C@@H]2CCN(S(C)(=O)=O)CC[C@H]2O)c1C (relative stereo)	112 to 115 °C
O=C(Nc1ccc(-c2cnc(-c3ccc(NC(=O)C45CC6CC(CC(C6)C4)C5)cc3)[nH]2)cc1)c1cccnc1	251 to 252 °C
O=C1COC(c2cccc(Cl)c2)c2cc(C3(c4ccc(Cl)cc4)OCCO3)ccc2N1 (centres undefined)	205 °C
CCOC(=O)c1cc([N+](=O)[O-])c(=O)[nH]c1C(=O)OCC	144 to 145 °C
Cc1cc(C)c2c(c1)c(-c1ccccc1Cl)c(NC(=O)Nc1ccc(F)cc1F)c(=O)n2C	225 to 227 °C
OCCN1CCC(Cc2ccccc2)CC1	62 to 64 °C
NC1CCc2[nH]c3ccccc3c2C1 (centres undefined)	160 to 166 °C
CC(=O)C1=CCC2C3CCC4CC(O)CCC4(C)C3C(=O)CC12C (centres undefined)	218 °C
CC(C)(C)c1ccc(OC(CC(=O)O)C(=O)O)c(C(C)(C)C)c1 (centres undefined)	177 to 181 °C
Cc1ccccc1C(=O)c1ccc(Nc2ccccc2NC(=O)CO)cc1F	149 to 150 °C
O=C(NCCCn1cncn1)c1ccco1	63 to 66 °C
Nc1cccc(-c2cccc(-c3ccnc4c(C(=O)c5cccs5)cnn34)c2)c1	117 to 121 °C
Cc1ncc(C(=O)N2CC2C#N)s1 (centres undefined)	90 to 92 °C
O=c1[nH]c2ccc(F)cc2c2cc(CO)nn12	295 to 297 °C
COc1ccc(Oc2ccn3nc(-c4ccccc4)c(-c4ccc(=O)n(C(C)C)n4)c3c2)nc1	148 to 150 °C
